This is an account of results in ChEMBL document CHEMBL5604062, “ASAP - ZIKV NS2B-NS3 protease fluorescence dose response” (2024).

Values joined by “and” are separate entries in the source; they are usually repeats but may differ in a detail not shown here. Identical values can stand only once.

The IC50 is the concentration that gives 50% inhibition. Low values mean greater potency in that assay, high ones weaker potency in that assay.

For this experiment, the target named is Nonstructural protein 3 (Zika virus, UniProt A0A024AXB9). The experiment can be described thus: Functional biochemical assay to identify treatments for viral infectious disease that targets Zika NS2B-NS3 protease. Utilizing a direct enzyme activity measurement method, reading the fluorescence intensity is used to characterize the relative potency of inhibitors as IC50. Details: species or system PRVABC59.
Nonstructural protein 3, sequence (A0A024AXB9 whole entry): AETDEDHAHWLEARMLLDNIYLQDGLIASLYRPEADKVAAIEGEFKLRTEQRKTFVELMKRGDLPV

As to `O=C1NCc2c1cccc2C(=O)Nc1ccc2c(c1)CNC2`, half-maximal inhibition (IC50) was put at 6.43 µM.
Next, `O=C(NCC(F)F)[C@H](Nc1ccc2c(c1)CNC2)c1cc(Cl)cc(C2CC2)c1`: 0.024 µM and 0.023 µM and 0.062 µM and 0.015 µM and 0.017 µM and 0.065 µM; `NS(=O)(=O)c1ccc(C(F)F)cc1-c1ccc2[nH]c(C(=O)O)cc2c1`: > 99.5 µM.
Regarding `C=C1C[C@H](c2cccc(CN)c2)[C@@H](c2cc(Cl)cc(NC(=O)OCc3ccccc3)c2)C1`, the IC50 is > 25 µM.
As for `O=C(O)c1ccc2nc(Cc3c[nH]c4ccc(Cl)cc34)cn2c1`, the half-inhibitory concentration (IC50) is > 99.5 µM.
On to `Cn1ccc(-c2cc(CN)cc([C@@H]3C[C@H]3c3cc(Cl)cc(NC(=O)OCc4ccccc4)c3)c2)n1`, for which the IC50 was found to be 8.05 µM.
Consider `CC(C)(C)OC(=O)Cc1cc(CN)cc(NC(=O)c2cc(Cl)cc(NC(=O)OCc3ccccc3)c2)c1`, for which the IC50 was > 99.5 µM.
On to `Clc1cc(CNc2ccc3c(c2)CNC3)c2cn[nH]c2c1`, for which the IC50 came out at 3.28 µM.
In the case of `NCc1cc(C(F)(F)F)cc(-c2ccc3[nH]c(C(=O)O)cc3c2)n1` it was > 99.5 µM.
In the case of `C(#C[C@H](Nc1ccc2c(c1)CNC2)c1cccc2[nH]ncc12)c1ccccc1`, the half-maximal inhibitory concentration (IC50) was > 25 µM.
Next, `O=C(O)c1cc2cc(-c3cc(Cl)cn4ncnc34)ccc2[nH]1`: > 99.5 µM; `O=C(Nc1ccc2c(c1)COC2)c1cc(Cl)cc2[nH]ncc12`: > 99.5 µM.
On to `NCc1cc(NC(=O)c2cc(Cl)cc(NC(=O)OCc3ccccc3)c2)cc(-c2ccc3c(c2)C[C@H](C(=O)O)CO3)c1`, for which the IC50 was > 99.5 µM.
`NCCc1cccc(NC(=O)c2cc(Cl)cc3[nH]ncc23)c1`: the midpoint of inhibition, the IC50, lay at 0.632 µM.
On to `CNC(=O)[C@]1(Nc2ccc3c(c2)CNC3)C(=O)Nc2c(OC)cc(Br)cc21`, for which the midpoint of inhibition, the IC50, lay at 53.8 µM.
In the case of `NCc1cc(-c2ccncc2)cc([C@@H]2C[C@H]2c2cc(Cl)cc(NC(=O)OCc3ccccc3)c2)c1` it was 12.3 µM.
In the case of `O=C(O)c1ccc(NC(=O)c2cc(Cl)cc3[nH]ncc23)cc1` it was > 99.5 µM; in that of `Cc1c(C(=O)Nc2cc(CCCN)ccn2)cc(-c2ccccc2)n1C`, > 25 µM; in that of `O=C(O)Cn1nc2ccc(-c3cc(Cl)cc(NC(=O)OCc4ccccc4)c3)nn2c1=O`, > 99.5 µM.
Consider `Cc1ccc(Oc2ncccc2C#N)c(-c2ccc3[nH]c(C(=O)O)cc3c2)c1`, for which the IC50 was > 99.5 µM.
For the molecule `O=Cc1ccc(N2CCC(C(=O)N3CCN(c4ccc([N+](=O)[O-])cc4C(F)(F)F)CC3)CC2)cc1`, the IC50 is > 0.782 µM.
As to `CN1[C@@H]2CCC[C@H]1C[C@@H](NC(=O)C1CCN(c3ccc(C=O)cc3)CC1)C2`, the IC50 is > 99.9 µM.
In the case of `O=Cc1ccc(N2CCC(C(=O)N3CCC(N4CCc5ccccc5C4)CC3)CC2)cc1` it was > 0.782 µM; in that of `O=Cc1ccc(N2CCC(C(=O)NC[C@H](O)c3ccc(O)c(O)c3)CC2)cc1`, > 12.7 µM.
For the molecule `O=Cc1ccc(N2CCC(C(=O)N3CCC(CCN4CCCC4)CC3)CC2)cc1`, the IC50 was > 99.9 µM.
As for `O=Cc1ccc(N2CCC(C(=O)NCCc3ccccc3[N+](=O)[O-])CC2)cc1`, the IC50 was > 50.2 µM.
Regarding `CCN1CCN(c2ccc(NC(=O)C3CCN(c4ccc(C=O)cc4)CC3)cc2)CC1`, the IC50 stood at 81.6 µM.
On to `CS(=O)(=O)c1ccc(N2CCN(C(=O)C3CCN(c4ccc(C=O)cc4)CC3)CC2)c([N+](=O)[O-])c1`, for which the IC50 is > 0.782 µM.
On to `O=Cc1ccc(N2CCC(C(=O)NC[C@@H]3CCCN4CCCC[C@H]34)CC2)cc1`, for which the IC50 is > 0.782 µM.
In turn, `O=Cc1ccc(N2CCC(C(=O)Nc3ccc(Br)cc3O)CC2)cc1` registered an IC50 of 67.6 µM.
Consider `O=Cc1ccc(N2CCC(C(=O)NCCC3CCN(Cc4ccccc4)CC3)CC2)cc1`, for which the IC50 is > 50.2 µM.
For the molecule `CC1CCN(CCCCNC(=O)C2CCN(c3ccc(C=O)cc3)CC2)CC1`, the IC50 is > 24.9 µM.
Consider `CC(=O)Nc1cccc(CNC(=O)C2CCN(c3ccc(C=O)cc3)CC2)c1`, for which the IC50 was > 99.9 µM.
Regarding `O=Cc1ccc(N2CCC(C(=O)N3CCN(c4cccc(O)c4)CC3)CC2)cc1`, half-maximal inhibition (IC50) was put at 49.4 µM.
As to `O=Cc1ccc(N2CCC(C(=O)N3CCN(CCc4ccccc4)CC3)CC2)cc1`, the IC50 was > 50.2 µM.
